This series is described as follows: ultimate aerobic biodegradability in aqueous medium, OECD method 301 B. The note with it: on the fourteenth day / after 14 days. The method, then: This test is an evaluation, in aqueous medium, of the ultimate aerobic biodegradability of a sample of the concentrated formulation according to the invention. This test is carried out according to the provisions of OECD method 301 B at the concentration of […] corresponding to an organic carbon content of 10 mg/l. The theoretical amount of carbon dioxide formed (CO2Th) in the “concentrated disinfectant detergent for floors, surfaces and materials at 10 mg/l of DOC” test is equal to 33.0 mg/l.
The physicochemical analysis is carried out according to standard ASTM D5291.
FIG. 1 represents the curves of results of degradation with respect to CO2Th.

`CC(=O)[O-].[Na+]` [sodium acetate]: the percentage degradation is listed as 81%.

For the origin of these results see patent US10111426B2, “Biocidal materials” (priority 2011, dated 2018).
